Data as given in the supplement of paper PMC10307832.

What was measured:
Assay in all cases: relative viability (nuclei count vs DMSO), 5 days (fraction); higher = more cells survive
[1] = tested on: HCC-78
In short: (§1)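 A single step with final 0.05% Triton X-100, 1% formaldehyde and 1 ug/ml Hoechst fixed the cells and stained nuclei 5 days after treatment. Lung cancer cell lines in 1536-well plates had been treated by pin tool the day after seeding with one drug alone or a fixed anchor-drug dose plus five library-drug doses (not always all listed) in √10 steps, and nuclei were counted on 4× images. Relative viability is the ratio of nuclei in treated wells to nuclei in vehicle wells, taken as the median of duplicate plates.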

[2] = tested on: SK-LU-1
In short: as §1

[3] = tested on: NCI-H358
In short: as §1

[4] = tested on: NCI-H1915
In short: as §1

[5] = tested on: NCI-H2126
In short: as §1

[6] = tested on: NCI-H2342
In short: as §1

[7] = tested on: NCI-H1792
In short: as §1

[8] = tested on: RERF-LC-KJ
In short: as §1

[9] = tested on: LXF-289
In short: as §1

[10] = tested on: NCI-H647
In short: as §1

[11] = tested on: LC-2-ad
In short: as §1

[12] = tested on: NCI-H2347
In short: as §1

[13] = tested on: NCI-H522
In short: as §1

[14] = tested on: NCI-H2228
In short: as §1

[15] = tested on: NCI-H1975
In short: as §1

[16] = tested on: NCI-H1755
In short: as §1

[17] = tested on: HOP-62
In short: as §1

[18] = tested on: HCC-15
In short: as §1

[19] = tested on: SW 1573
In short: as §1

[20] = tested on: A-427
In short: as §1

[21] = tested on: PC-3 [JPC-3]
In short: as §1

[22] = tested on: NCI-H1734
In short: as §1

## CCN(CC)CCCCNc1ncc2cc(-c3cc(OC)cc(OC)c3)c(NC(=O)NC(C)(C)C)nc2n1 + CC(=O)Nc1cccc(-n2c(=O)n(C3CC3)c(=O)c3c(Nc4ccc(I)cc4F)n(C)c(=O)c(C)c32)c1 [Trametinib] (partner 0.02 µM)
[1]; first compound 0.01 µM
  relative viability: 0.874
[1]; first compound 0.03162 µM
  relative viability: 0.685
[1]; first compound 0.1 µM
  relative viability: 0.842
[1]; first compound 0.3162 µM
  relative viability: 0.819
[1]; first compound 1 µM
  relative viability: 0.76
[2]; first compound 0.01 µM
  relative viability: 0.491
[2]; first compound 0.03162 µM
  relative viability: 0.444
[2]; first compound 0.1 µM
  relative viability: 0.434
[2]; first compound 0.3162 µM
  relative viability: 0.409
[2]; first compound 1 µM
  relative viability: 0.333
[3]; first compound 0.01 µM
  relative viability: 0.127
[3]; first compound 0.03162 µM
  relative viability: 0.15
[3]; first compound 0.1 µM
  relative viability: 0.143
[3]; first compound 0.3162 µM
  relative viability: 0.139
[3]; first compound 1 µM
  relative viability: 0.125
[4]; first compound 0.01 µM
  relative viability: 0.303
[4]; first compound 0.03162 µM
  relative viability: 0.294
[4]; first compound 0.1 µM
  relative viability: 0.33
[4]; first compound 0.3162 µM
  relative viability: 0.249
[4]; first compound 1 µM
  relative viability: 0.233
[5]; first compound 0.01 µM
  relative viability: 0.533
[5]; first compound 0.03162 µM
  relative viability: 0.578
[5]; first compound 0.1 µM
  relative viability: 0.58
[5]; first compound 0.3162 µM
  relative viability: 0.58
[5]; first compound 1 µM
  relative viability: 0.578
[6]; first compound 0.01 µM
  relative viability: 0.787
[6]; first compound 0.03162 µM
  relative viability: 0.783
[6]; first compound 0.1 µM
  relative viability: 0.815
[6]; first compound 0.3162 µM
  relative viability: 0.858
[6]; first compound 1 µM
  relative viability: 0.928
[7]; first compound 0.01 µM
  relative viability: 0.432
[7]; first compound 0.03162 µM
  relative viability: 0.42
[7]; first compound 0.1 µM
  relative viability: 0.415
[7]; first compound 0.3162 µM
  relative viability: 0.518
[7]; first compound 1 µM
  relative viability: 0.232
[8]; first compound 0.01 µM
  relative viability: 0.925
[8]; first compound 0.03162 µM
  relative viability: 0.923
[8]; first compound 0.1 µM
  relative viability: 0.94
[8]; first compound 0.3162 µM
  relative viability: 0.906
[8]; first compound 1 µM
  relative viability: 0.818
[9]; first compound 0.01 µM
  relative viability: 0.704
[9]; first compound 0.03162 µM
  relative viability: 0.703
[9]; first compound 0.1 µM
  relative viability: 0.637
[9]; first compound 0.3162 µM
  relative viability: 0.759
[9]; first compound 1 µM
  relative viability: 0.644
[10]; first compound 0.01 µM
  relative viability: 0.382
[10]; first compound 0.03162 µM
  relative viability: 0.517
[10]; first compound 0.1 µM
  relative viability: 0.512
[10]; first compound 0.3162 µM
  relative viability: 0.456
[10]; first compound 1 µM
  relative viability: 0.267
[11]; first compound 0.01 µM
  relative viability: 0.874
[11]; first compound 0.03162 µM
  relative viability: 1.02
[11]; first compound 0.1 µM
  relative viability: 0.992
[11]; first compound 0.3162 µM
  relative viability: 0.967
[11]; first compound 1 µM
  relative viability: 0.841
[12]; first compound 0.01 µM
  relative viability: 0.253
[12]; first compound 0.03162 µM
  relative viability: 0.261
[12]; first compound 0.1 µM
  relative viability: 0.293
[12]; first compound 0.3162 µM
  relative viability: 0.367
[12]; first compound 1 µM
  relative viability: 0.321
[13]; first compound 0.01 µM
  relative viability: 0.799
[13]; first compound 0.03162 µM
  relative viability: 0.772
[13]; first compound 0.1 µM
  relative viability: 0.787
[13]; first compound 0.3162 µM
  relative viability: 0.664
[13]; first compound 1 µM
  relative viability: 0.883
[14]; first compound 0.01 µM
  relative viability: 0.449
[14]; first compound 0.03162 µM
  relative viability: 0.551
[14]; first compound 0.1 µM
  relative viability: 0.311
[14]; first compound 0.3162 µM
  relative viability: 0.543
[14]; first compound 1 µM
  relative viability: 0.309
[15]; first compound 0.01 µM
  relative viability: 0.328
[15]; first compound 0.03162 µM
  relative viability: 0.314
[15]; first compound 0.1 µM
  relative viability: 0.345
[15]; first compound 0.3162 µM
  relative viability: 0.405
[15]; first compound 1 µM
  relative viability: 0.348
[16]; first compound 0.01 µM
  relative viability: 0.83
[16]; first compound 0.03162 µM
  relative viability: 0.776
[16]; first compound 0.1 µM
  relative viability: 0.759
[16]; first compound 0.3162 µM
  relative viability: 0.827
[16]; first compound 1 µM
  relative viability: 0.55
[17]; first compound 0.01 µM
  relative viability: 0.452
[17]; first compound 0.03162 µM
  relative viability: 0.395
[17]; first compound 0.1 µM
  relative viability: 0.398
[17]; first compound 0.3162 µM
  relative viability: 0.37
[17]; first compound 1 µM
  relative viability: 0.339
[18]; first compound 0.01 µM
  relative viability: 0.427
[18]; first compound 0.03162 µM
  relative viability: 0.367
[18]; first compound 0.1 µM
  relative viability: 0.414
[18]; first compound 0.3162 µM
  relative viability: 0.42
[18]; first compound 1 µM
  relative viability: 0.361
[19]; first compound 0.01 µM
  relative viability: 0.455
[19]; first compound 0.03162 µM
  relative viability: 0.539
[19]; first compound 0.1 µM
  relative viability: 0.605
[19]; first compound 0.3162 µM
  relative viability: 0.516
[19]; first compound 1 µM
  relative viability: 0.433
[20]; first compound 0.01 µM
  relative viability: 0.784
[20]; first compound 0.03162 µM
  relative viability: 0.68
[20]; first compound 0.1 µM
  relative viability: 0.694
[20]; first compound 0.3162 µM
  relative viability: 0.595
[20]; first compound 1 µM
  relative viability: 0.466
[21]; first compound 0.03162 µM
  relative viability: 0.698
[21]; first compound 0.1 µM
  relative viability: 0.766
[21]; first compound 0.3162 µM
  relative viability: 0.72
[21]; first compound 1 µM
  relative viability: 0.683
[22]; first compound 0.01 µM
  relative viability: 0.665
[22]; first compound 0.03162 µM
  relative viability: 0.678
[22]; first compound 0.1 µM
  relative viability: 0.627
[22]; first compound 0.3162 µM
  relative viability: 0.581
[22]; first compound 1 µM
  relative viability: 0.407
